Measurements from patent publication US6342582B1, “Reaction and dissolving medium for peptides and synthesis method using this medium” (Rhodia Chimie, priority 1990, dated 2002).
Counter-ions that a name gives are not always drawn. Where a SMILES comes first, the peptide text is derived from it. The star is where a group is joined. OBn = c1ccc(CO*)cc1

Columns and labels:
[1] = Dissolving experiments: solubility of the peptide intermediate in solvent or solvent/additive mixture; conditions: 25° C.; for Solubility in the 4/1 dichloromethane/phenol mixture: 4/1 dichloromethane/phenol by weight; for Solubility in 4/1 dichloromethane/dimethylformamide: comparison, additive not part of the invention
Protocol: Protocol for dissolving experiments
The solubilities of the peptide intermediate were determined as follows, at a temperature of 25° C.
An accurately weighed amount of the peptide intermediate is placed in a Pyrex tube. The solvent or mixture of solvents to be tested is then introduced using a precision pipette so as to obtain a ratio of mass of peptide/volume of solvent of 8 g/100 cm^3.
The tube, closed by a screw stopper, is then placed on a HEIDOLPH agitator, TOP-MIX model, vibrating at its maximum speed for 60 seconds.
If not, the volume of solvent is doubled and the procedure is started again.
At the end of 4 successive dilutions without complete dissolution, the measurements are repeated on a smaller amount of solid.
Remarks: The composition of the solvent/additive mixtures is expressed by weight.

[2] = Solubility in dichloromethane determined by HPLC, external standardization, on a saturated solution; format: physicochemical
Protocol: The solubility in dichloromethane was determined by HPLC, using external standardization, on a saturated solution of Boc-Gly5-OCH3.
The solubility in dichloromethane was determined by HPLC, by external standardization on the supernatant of a saturated solution; the other solubilities were determined as in Example 1: […]

[3] = Distribution of the peptide between dichloromethane (with phenol) and water; format: physicochemical; conditions: dichloromethane (12 cm^3) + 3.9 g phenol / aqueous KHCO3 2 N (3 cm^3); HPLC
Protocol: With a view to purification of this tetrapeptide, by washing with water at the end of its synthesis, the distribution of this peptide between dichloromethane and water was studied as follows.
A solution of Gly-Gly-Phe-Leu-OBzl hydrochloride (0.9 mmole) in dichloromethane (12 cm^3) is stirred vigorously in the presence of an aqueous KHCO3 solution (2 N; 3 cm^3). This mixture yields an emulsion which remains stable for several days. A comparative experiment was carried out in the presence of phenol:
A distribution experiment carried out in accordance with Example 15 after the addition of 3.9 g of phenol to the organic solution yields, after identical stirring, two clear liquid phases, the settling out of which is complete in less than 15 minutes.

[4] = comparison additive, concentrations lower than 2 g/100 cm^3 were not tested

**Q.** For `NC(N)=NCCC[C@H](N)C(=O)N1CCC[C@H]1C(=O)O` [Afg-Pro.2HCl, L-arginyl-L-proline dihydrochloride] (H-Arg-Pro-OH), which “Solubility in the 4/1 dichloromethane/phenol mixture” value [1] is on record?
**A.** s = 2 g/100 cm^3

**Q.** What about the Solubility in dichloromethane [1] of the same compound?
**A.** s < 0.05 g/100 cm^3

**Q.** Which results are given for `COC(=O)CNC(=O)CNC(=O)CNC(=O)CNC(=O)CNC(=O)OC(C)(C)C` [Boc-Gly5-OCH3, N-tert-butoxycarbonylpentaglycine methyl ester]?
**A.** Solubility in dichloromethane (HPLC) [2]: s = 0.33 g/100 cm^3; Solubility in 2-chlorophenol ([1]; 2-chlorophenol alone): s > 8 g/100 cm^3; Solubility in 4/1 anisole/phenol ([1]; 4/1 anisole/phenol by weight): s = 4 g/100 cm^3; Solubility in the 4/1 dichloromethane/phenol mixture [1]: s = 4 g/100 cm^3; Solubility in 20/1 dichloromethane/phenol ([1]; 20/1 dichloromethane/phenol by weight): s = 0.5 g/100 cm^3; Solubility in anisole ([1]; anisole): s < 0.05 g/100 cm^3

**Q.** Which “Solubility in dichloromethane (HPLC)” value [2] does the source give for `CC(C)(C)OC(=O)NCC(=O)NCC(=O)NCC(=O)NCC(=O)NCC(=O)OCc1ccccc1` [Boc-Gly-Gly-Gly-Gly-Gly-O-CH2-Ph, N-tert-butoxycarbonylpentaglycine benzyl ester] here?
**A.** s = 0.07 g/100 cm^3

**Q.** And the “Solubility in 9/1 dichloromethane/phenol” value ([1]; 9/1 dichloromethane/phenol by weight)?
**A.** s > 5 g/100 cm^3

**Q.** What about the “Solubility in 9/1 dichloromethane/2-octanol” value [1, 4] of the same compound?
**A.** s < 2 g/100 cm^3

**Q.** And the “Solubility in 9/1 dichloromethane/dimethylformamide” value [1, 4]?
**A.** s < 2 g/100 cm^3

**Q.** What about the “Solubility in 9/1 dichloromethane/pivalic acid” value [1, 4] of the same compound?
**A.** s < 2 g/100 cm^3

**Q.** What about the “Solubility in 9/1 dichloromethane/trifluoroethanol” value [1, 4] of the same compound?
**A.** s < 2 g/100 cm^3

**Q.** What about the “Solubility in dichloromethane saturated with LiCl” value [1, 4] of the same compound?
**A.** s < 2 g/100 cm^3

**Q.** For `CC(C)C[C@H](NC(=O)[C@H](Cc1ccccc1)NC(=O)CNC(=O)CN)C(=O)OCc1ccccc1` [Gly-Gly-Phe-Leu-OBzl, Glycyl-glycyl-L-phenylalanyl-L-leucine benzyl ester] (H-GGFL-OBn), which “Share of the tetrapeptide employed found in the aqueous phase” value [3] is on record?
**A.** 0.4%

**Q.** Which “Solubility in the 4/1 dichloromethane/phenol mixture” value [1] does the source give for `N[C@@H](Cc1c[nH]cn1)C(=O)N[C@@H](Cc1c[nH]c2ccccc12)C(=O)O` [His,Trp.HCl, L-histidinyl-L-tryptophan hydrochloride] here?
**A.** s = 2 g/100 cm^3

**Q.** What about the Solubility in dichloromethane [1] of the same compound?
**A.** s < 0.05 g/100 cm^3

**Q.** With `CC(C)C[C@H](N)C(=O)N[C@@H](CCCNC(=N)N)C(=O)N1CCC[C@H]1C(=O)NCC(N)=O` [Leu-Arg-Pro-Gly-NH2.HCl, L-leucyl-L-arginyl-L-prolyl-glycinamide hydro-chloride] (H-LRPG-NH2) as the compound, how does the “Solubility in 4/1 dichloromethane/3-trifluoromethylphenol” value ([1]; 4/1 dichloromethane/3-trifluoromethylphenol by weight) read?
**A.** s = 4 g/100 cm^3

**Q.** And the “Solubility in 4/1 dichloromethane/4-methoxyphenol” value ([1]; 4/1 dichloromethane/4-methoxyphenol by weight)?
**A.** s = 4 g/100 cm^3

**Q.** And the “Solubility in 4/1 dichloromethane/dimethylformamide” value [1]?
**A.** s < 0.5 g/100 cm^3

**Q.** And the “Solubility in the 4/1 dichloromethane/phenol mixture” value [1]?
**A.** s = 4 g/100 cm^3

**Q.** What about the “Solubility in 5/1 dichloromethane/2-hydroxypyridine” value ([1]; 5/1 dichloromethane/2-hydroxypyridine by weight) of the same compound?
**A.** s = 1 g/100 cm^3

**Q.** What about the Solubility in dichloromethane [1] of the same compound?
**A.** s < 0.05 g/100 cm^3

**Q.** What does the source list for `NC(=O)CNC(=O)[C@@H]1CCCN1` [Pro-Gly-NH2.HCl, L-prolyl-glycinamide hydrochloride] (H-Pro-Gly-NH2)?
**A.** Solubility in 4/1 dichloromethane/dimethylformamide [1]: s < 0.5 g/100 cm^3; Solubility in the 4/1 dichloromethane/phenol mixture [1]: s > 16 g/100 cm^3; Solubility in dichloromethane [1]: s < 0.05 g/100 cm^3

**Q.** For `COC(=O)[C@H](Cc1ccc(O)cc1)NC(=O)[C@@H](N)CO` [Ser-Tyr-OCH3.HCl, L-serinyl-L-tyrosine methyl ester hydrochloride] (H-Ser-Tyr-OMe), which Solubility in dichloromethane [1] is on record?
**A.** s < 0.05 g/100 cm^3
